Key:
[1] = molecular target: T1, RBP1 (Homo sapiens, UniProt P09455); experiment: affinity purification, SEC and mass spectrometry lipidomics; format: cell-based; details: in cellulo, HEK293; retinoid form not specified beyond vitamin A
T1 sequence (P09455 1-135): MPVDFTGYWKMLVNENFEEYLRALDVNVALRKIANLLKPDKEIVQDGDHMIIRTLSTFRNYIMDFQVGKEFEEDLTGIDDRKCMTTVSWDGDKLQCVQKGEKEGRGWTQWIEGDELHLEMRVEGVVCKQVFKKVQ

[2] = molecular target: RBP4 (Homo sapiens, UniProt P02753); experiment: as above; format: cell-based; details: in cellulo, HEK293; retinoid form not specified beyond vitamin A

CC1=C(/C=C/C(C)=C/C=C/C(C)=C/CO)C(C)(C)CCC1 [vitamin A]
affinity purification, SEC and mass spectrometry lipidomics [1]: RBP1 and RBP4 formed complexes with vitamin A only in the cellular context
affinity purification, SEC and mass spectrometry lipidomics [2]: RBP1 and RBP4 formed complexes with vitamin A only in the cellular context
